Laboratory results from paper PMC7615250 (Cell reports, 2023).

Experiments:
NPR-34 = assay: Aequorin-based calcium mobilization assay; assay type: cell-based, C. elegans; details: CHO/mtAEQ/Gα16 cells expressing NPR-34; aequorin luminescence; n ≥ 6
SEB-2 = SEB-2 (Caenorhabditis elegans, UniProt P30650); assay type: cell-based, C. elegans; details: n ≥ 6
SEB-2, sequence (P30650 whole entry, looked up): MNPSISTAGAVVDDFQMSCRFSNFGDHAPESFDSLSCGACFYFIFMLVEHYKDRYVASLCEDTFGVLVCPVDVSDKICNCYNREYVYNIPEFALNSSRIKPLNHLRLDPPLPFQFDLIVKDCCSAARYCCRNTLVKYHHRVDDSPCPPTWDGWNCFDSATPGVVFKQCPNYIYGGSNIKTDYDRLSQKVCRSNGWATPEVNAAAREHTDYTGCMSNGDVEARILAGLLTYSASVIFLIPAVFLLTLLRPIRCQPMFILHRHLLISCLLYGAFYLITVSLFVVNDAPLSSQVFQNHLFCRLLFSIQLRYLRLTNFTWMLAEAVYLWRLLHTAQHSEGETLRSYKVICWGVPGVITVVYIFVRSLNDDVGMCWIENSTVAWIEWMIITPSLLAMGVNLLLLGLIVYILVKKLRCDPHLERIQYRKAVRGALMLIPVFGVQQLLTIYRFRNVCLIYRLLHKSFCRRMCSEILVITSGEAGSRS

Row | Substance | receptor activation (calcium response) (NPR-34) | receptor activation (calcium response) (SEB-2)
1 | LDCRKFSFAPACRGIML; C3–C12 (disulfide) [SNET-1] | activate | –
2 | NRQCLLNAGLSQGCDFSDLLHAQTQARKFMSFAGPamide; C4–C14 (disulfide) [NLP-73] | – | activate
